Key:
human DLK [1] = biological target: T1, human DLK (Homo sapiens, UniProt Q12852); experiment: Phospho-cJun Cellular Assay; format: cell-based; parameters: expressed in transfected cells; conditions: HEK293 cells stably transfected with Dox-inducible human DLK; p-cJun (Ser63); 5 h compound incubation
T1 sequence (Q12852 1-859): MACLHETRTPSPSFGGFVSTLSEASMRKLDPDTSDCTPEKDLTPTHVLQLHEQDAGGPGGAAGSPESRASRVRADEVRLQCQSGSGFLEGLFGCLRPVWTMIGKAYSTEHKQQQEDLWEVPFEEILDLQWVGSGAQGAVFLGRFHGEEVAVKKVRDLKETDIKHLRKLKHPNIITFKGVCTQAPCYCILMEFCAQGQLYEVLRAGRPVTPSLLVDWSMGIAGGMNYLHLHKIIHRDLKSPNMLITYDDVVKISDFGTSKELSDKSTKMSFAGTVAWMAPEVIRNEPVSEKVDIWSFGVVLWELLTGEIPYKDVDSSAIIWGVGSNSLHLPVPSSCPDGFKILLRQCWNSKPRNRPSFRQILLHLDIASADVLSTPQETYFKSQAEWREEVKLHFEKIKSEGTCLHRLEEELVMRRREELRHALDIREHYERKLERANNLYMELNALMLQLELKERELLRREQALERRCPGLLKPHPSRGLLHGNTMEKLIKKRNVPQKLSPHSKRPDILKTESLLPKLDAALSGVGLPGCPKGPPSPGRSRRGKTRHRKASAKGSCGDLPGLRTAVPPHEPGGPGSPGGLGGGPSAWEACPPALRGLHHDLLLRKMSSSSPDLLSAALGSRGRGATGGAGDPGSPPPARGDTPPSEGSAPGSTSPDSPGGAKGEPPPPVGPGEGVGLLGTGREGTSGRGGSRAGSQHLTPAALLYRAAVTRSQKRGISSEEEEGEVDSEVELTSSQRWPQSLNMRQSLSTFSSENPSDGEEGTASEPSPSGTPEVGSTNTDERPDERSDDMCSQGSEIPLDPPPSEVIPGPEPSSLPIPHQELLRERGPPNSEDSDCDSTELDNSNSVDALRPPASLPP
Protocol: Phospho-cJun Cellular Assay
HEK293 cells stably transfected with a Dox-inducible human DLK were plated into a 384-well plate in 20 μl (40,000 cells/well) of DMEM medium (without phenol red) containing 10% fetal bovine serum, 1.5 μg/ml doxycycline and 1 μg/ml puromycin. The cells as negative control were grown in the absence of doxycycline. The plate was incubated at 37° C., 5% CO2 for 20 h, before DMSO (control) or compounds diluted in medium were added. The cells were incubated at 37° C. for an additional 5 h, followed by lysis and the addition detection antibodies from p-cJun (Ser63) cellular assay kit (Cisbio) per manufacturer protocol. The standard dose response curves were fitted by Genedata Screener software using the variable-slope model: Signal=Signalnegative control+(SignalDMSO control−Signalnegative control)/(1+(IC50/Dose)̂Hill slope). Only signal and dose in the equation were treated as known values.

human DLK [2] = biological target: T1, human DLK; experiment: DLK Kd Determinations (KINOMEscan KdELECT, DiscoveRx); parameters: full length of human DLK (amino acids 1-859); host or cells: transiently transfected HEK293 cells; unpurified extract; conditions: fusion protein of full length human DLK (amino acids 1-859) and NFkB DNA binding domain; qPCR readout; duplicate
In short: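 Competition binding of full-length human DLK (aa 1-859)-NFkB DBD fusion, DNA-tagged, from HEK293 extracts against an immobilized ligand; 1 h at room temperature, 0.9% DMSO. Bead-bound kinase was quantified by qPCR. Kd came from an 11-point 3-fold series (top 30,000 nM), in duplicate, with Hill slope fixed at −1.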

| SMILES | IC50 (human DLK [1]) | Kd (human DLK [2]) |
| --- | --- | --- |
| CN1CCN(C2C[C@@H]3[C@H](C2)[C@H]3n2cc(-c3cnc(N)c(OC(F)(F)F)c3)nc2CC2CC2)CC1 (single isomer, unassigned) [Example 151a, 5-(2-(cyclopropylmethyl)-1-(3-(4-methylpiperazin-1-yl)bicyclo[3.1.0]hexan-6-yl)-1H-imidazol-4-yl)-3-(trifluoromethoxy)pyridin-2-amine] | 994 nM | 26 nM |
| Nc1ncc(-c2cn([C@H]3[C@@H]4CC(N5CCCOCC5)C[C@@H]43)c(C3CC3)n2)cc1C(F)(F)F (single isomer, unassigned) [Example 141b, 5-(1-(3-(1,4-oxazepan-4-yl)bicyclo[3.1.0]hexan-6-yl)-2-cyclopropyl-1H-imidazol-4-yl)-3-(trifluoromethyl)pyridin-2-amine] | 587 nM | 16 nM |
| C[C@H]1COCCN1C1C[C@@H]2[C@H](C1)[C@H]2n1cc(-c2cnc(N)c(C(F)(F)F)c2)nc1C1CC1 (single isomer, unassigned) [Example 140b] | 636 nM | 37.5 nM |
| Nc1ncc(-c2cn([C@H]3[C@@H]4CN(C5CCOCC5)C[C@@H]43)c(CC3CC3)n2)cc1OC(F)F [Example 88, 5-(2-(cyclopropylmethyl)-1-((1R,5S,6s)-3-(tetrahydro-2H-pyran-4-yl)-3-azabicyclo[3.1.0]hexan-6-yl)-1H-imidazol-4-yl)-3-(difluoromethoxy)pyridin-2-amine] | 994 nM | 71 nM |
| CC(C)(C)Cc1nc(-c2cnc(N)c(C(F)(F)F)c2)cn1[C@H]1[C@@H]2CN(CCF)C[C@@H]21 [Example 85, 5-(1-((1R,5S,6s)-3-(2-fluoroethyl)-3-azabicyclo[3.1.0]hexan-6-yl)-2-neopentyl-1H-imidazol-4-yl)-3-(trifluoromethyl)pyridin-2-amine] | 594 nM | 60 nM |
| CC(C)c1nc(-c2cnc(N)c(OC(F)F)c2)cn1[C@H]1[C@@H]2CN(C3COC3)C[C@@H]21 [Example 83, 3-(difluoromethoxy)-5-(2-isopropyl-1-((1R,5S,6s)-3-(oxetan-3-yl)-3-azabicyclo[3.1.0]hexan-6-yl)-1H-imidazol-4-yl)pyridin-2-amine] | 3550 nM | 160 nM |
| COCCN1C[C@@H]2[C@H](C1)[C@H]2n1cc(-c2cnc(N)c(C(F)(F)F)c2)nc1CC(F)(F)F [Example 121, 5-(1-((1R,5S,6s)-3-(2-methoxyethyl)-3-azabicyclo[3.1.0]hexan-6-yl)-2-(2,2,2-trifluoroethyl)-1H-imidazol-4-yl)-3-(trifluoromethyl)pyridin-2-amine] | 1590 nM | 49 nM |
| CC(C)c1nc(-c2cnc(N)c(C(F)(F)F)c2)cn1[C@H]1[C@@H]2CC(N3CCCOCC3)C[C@@H]21 (some centres unmarked) [Example 142, 5-(1-(3-(1,4-oxazepan-4-yl)bicyclo[3.1.0]hexan-6-yl)-2-isopropyl-1H-imidazol-4-yl)-3-(trifluoromethyl)pyridin-2-amine] | 934 nM | 9.4 nM |
| Nc1ncc(-c2cn([C@H]3[C@@H]4CN(C5CCOCC5)C[C@@H]43)c(CC3CC3)n2)cc1C(F)(F)F [Example 76, 5-(2-(cyclopropylmethyl)-1-((1R,5S,6s)-3-(tetrahydro-2H-pyran-4-yl)-3-azabicyclo[3.1.0]hexan-6-yl)-1H-imidazol-4-yl)-3-(trifluoromethyl)pyridin-2-amine] | 760 nM | 51 nM |
| CC(C)c1nc(-c2cnc(N)c(C(F)(F)F)c2)cn1[C@H]1[C@@H]2CC(N3CCOC[C@@H]3C)C[C@@H]21 (stereo partly drawn) [Example 131, 5-(2-isopropyl-1-(3-((S)-3-methylmorpholino)bicyclo[3.1.0]hexan-6-yl)-1H-imidazol-4-yl)-3-(trifluoromethyl)pyridin-2-amine] | 1390 nM | 34 nM |
| Nc1ncc(-c2cn([C@H]3[C@@H]4CN(C5CCOCC5)C[C@@H]43)c(C3CC3)n2)cc1OC(F)(F)F [Example 66, 5-(2-cyclopropyl-1-((1R,5S,6s)-3-(tetrahydro-2H-pyran-4-yl)-3-azabicyclo[3.1.0]hexan-6-yl)-1H-imidazol-4-yl)-3-(trifluoromethoxy)pyridin-2-amine] | 827 nM | 59 nM |
| Nc1ncc(-c2cn([C@H]3[C@@H]4CN(C5CCOCC5)C[C@@H]43)c(CC(F)(F)F)n2)cc1C(F)(F)F [Example 119, 5-(1-((1R,5S,6s)-3-(tetrahydro-2H-pyran-4-yl)-3-azabicyclo[3.1.0]hexan-6-yl)-2-(2,2,2-trifluoroethyl)-1H-imidazol-4-yl)-3-(trifluoromethyl)pyridin-2-amine] | 1850 nM | 71 nM |
| Nc1ncc(-c2cn([C@H]3[C@@H]4CC(N5CCN(CCF)CC5)C[C@@H]43)c(C3CC3)n2)cc1OC(F)(F)F (single isomer, unassigned) [Example 154b, 5-(2-cyclopropyl-1-(3-(4-(2-fluoroethyl)piperazin-1-yl)bicyclo[3.1.0]hexan-6-yl)-1H-imidazol-4-yl)-3-(trifluoromethoxy)pyridin-2-amine] | 597 nM | 17 nM |
| CC(C)c1nc(-c2cnc(N)c(C(F)(F)F)c2)cn1[C@H]1[C@@H]2CC(N3CCN(C)CC3)C[C@@H]21 (some centres unmarked) [Example 132, 5-(2-isopropyl-1-(3-(4-methylpiperazin-1-yl)bicyclo[3.1.0]hexan-6-yl)-1H-imidazol-4-yl)-3-(trifluoromethyl)pyridin-2-amine] | 909 nM | 22 nM |
| CC(C)c1nc(-c2cnc(N)c(C(F)(F)F)c2)cn1[C@H]1[C@@H]2CC(N3CCOC[C@@H]3C)C[C@@H]21 (stereo partly drawn) [Example 143, 5-(2-isopropyl-1-(3-((S)-3-methylmorpholino)bicyclo[3.1.0]hexan-6-yl)-1H-imidazol-4-yl)-3-(trifluoromethyl)pyridin-2-amine] | 1510 nM | 19 nM |
| Nc1ncc(-c2cn([C@H]3[C@@H]4CC(N5CCN(CCF)CC5)C[C@@H]43)c(C3CC3)n2)cc1C(F)(F)F (single isomer, unassigned) [Example 153b, 5-(2-cyclopropyl-1-(3-(4-(2-fluoroethyl)piperazin-1-yl)bicyclo[3.1.0]hexan-6-yl)-1H-imidazol-4-yl)-3-(trifluoromethyl)pyridin-2-amine] | 809 nM | 9 nM |
| CC(C)Cc1nc(-c2cnc(N)c(C(F)(F)F)c2)cn1[C@H]1[C@@H]2CC(N3CCN(CCF)CC3)C[C@@H]21 (single isomer, unassigned) [Example 160a, 5-(1-(3-(4-(2-fluoroethyl)piperazin-1-yl)bicyclo[3.1.0]hexan-6-yl)-2-isobutyl-1H-imidazol-4-yl)-3-(trifluoromethyl)pyridin-2-amine] | 738 nM | 13 nM |
| CN1CCN(C2C[C@@H]3[C@H](C2)[C@H]3n2cc(-c3cnc(N)c(C(F)(F)F)c3)nc2C2CC2)CC1 (single isomer, unassigned) [Example 129b, 5-(2-cyclopropyl-1-(3-(4-methylpiperazin-1-yl)bicyclo[3.1.0]hexan-6-yl)-1H-imidazol-4-yl)-3-(trifluoromethyl)pyridin-2-amine] | 633 nM | 16 nM |
| Nc1ncc(-c2cn([C@H]3[C@@H]4CC(N5CCN(CCF)CC5)C[C@@H]43)c(C3CC3)n2)cc1C(F)(F)F (single isomer, unassigned) [Example 153a, 5-(2-cyclopropyl-1-(3-(4-(2-fluoroethyl)piperazin-1-yl)bicyclo[3.1.0]hexan-6-yl)-1H-imidazol-4-yl)-3-(trifluoromethyl)pyridin-2-amine] | 891 nM | 22 nM |
